The text below walks through data of patent US20030165475A1, “Non-lethal methods for conditioning a recipient for bone marrow transplantation” (priority 1993, published 2003).

The assay has as its system B10 mice. Conditions: for NO. OF ANIMALS ENGRAFTED: 300 cGy.

SMILES strings stand for the structures. Like-named read-outs stand apart in the source and are kept apart here.

Method: Recipients were characterized for donor cell engraftment using flow cytometry (FACS II, Becton Dickinson; Mountain View, Calif.) to determine the presence of peripheral blood lymphocytes bearing H-2^b, H-2^k, and H-2^d encoded antigens as described (Jeffries et al., 1985, J Exp Med 117:127).
Briefly, peripheral blood was collected through tail bleeding into heparinized plastic serum vials. 2001 μl of Medium 199 (Gibco Laboratories; Grand Island, N.Y.) were added to each vial. After thorough mixing, the suspension was layered over 1.5 ml of room temperature Lymphocyte Separation Medium (LSM) (Organon Teknika; Durham, N.C.) and centrifuged at 37° C. (400g×20 minutes). The buffy coat layer was aspirated from the Medium 199-LSM interface and washed with medium. Lymphocytes were stained with fluorescein-conjugated monoclonal antibodies for donor- and host-specific class I antibodies H2K^b (AF6-88.5), H2K^d (SF1-1.1), and H2K^k (AF3-12.1) (Pharmingen) conjugated with fluorescein and lineage markers conjugated with PE α β-TCR (H57-597), CD4 (L3T4), CD8 (Ly2), NK1.1 (PK136), and CD45R/B220 (RA3-603) (Pharmingen) and MAC-1 (M1/70) (Boehringer Mannheim, Indianapolis, Ind.) for 45 minutes at 4° C.

Consider `O=P1(N(CCCl)CCCl)NCCCO1` (stereo not shown) [CyP, cyclophosphamide], for which the recipients engrafted entry (50 mg/kg CyP or more on day 2 with ALG plus 300 cGy TBI) is recorded as “more than 85%”. In addition, the “NO. OF ANIMALS ENGRAFTED” value runs as follows: (CyP 50 mg/kg day 2, 1 MG ALG) 2/2; (CyP 50 mg/kg day 2, 2 MG ALG) 1/1; (CyP 50 mg/kg day 2, TOTAL) 3/3; (CyP 100 mg/kg day 2, 1 MG ALG) 2/2; (CyP 100 mg/kg day 2, 2 MG ALG) 2/2; (CyP 100 mg/kg day 2, TOTAL) 4/4. Also, the “NO. OF ANIMALS ENGRAFTED” value (CyP 150 mg/kg day 2, 1 MG ALG) is on record as 3/4; the “NO. OF ANIMALS ENGRAFTED” value (CyP 150 mg/kg day 2, 2 MG ALG) is listed as 2/2; the “NO. OF ANIMALS ENGRAFTED” value (CyP 150 mg/kg day 2, TOTAL) is 5/6; the “NO. OF ANIMALS ENGRAFTED” value (CyP 200 mg/kg day 2, 1 MG ALG) is listed as 5/6; the “NO. OF ANIMALS ENGRAFTED” value (CyP 200 mg/kg day 2, 2 MG ALG) is listed as 7/8; the “NO. OF ANIMALS ENGRAFTED” value (CyP 200 mg/kg day 2, TOTAL) is listed as 12/14.
